# Test results: BindingDB's records for doi:10.1016/j.chembiol.2010.05.008 (Kyowa Hakko Kogyo, 2010)
# Target: Nicotinamide phosphoribosyltransferase (Homo sapiens, UniProt P43490)
# Assay: In Vitro Inhibition Assay
# Sequence of Nicotinamide phosphoribosyltransferase (P43490 whole entry): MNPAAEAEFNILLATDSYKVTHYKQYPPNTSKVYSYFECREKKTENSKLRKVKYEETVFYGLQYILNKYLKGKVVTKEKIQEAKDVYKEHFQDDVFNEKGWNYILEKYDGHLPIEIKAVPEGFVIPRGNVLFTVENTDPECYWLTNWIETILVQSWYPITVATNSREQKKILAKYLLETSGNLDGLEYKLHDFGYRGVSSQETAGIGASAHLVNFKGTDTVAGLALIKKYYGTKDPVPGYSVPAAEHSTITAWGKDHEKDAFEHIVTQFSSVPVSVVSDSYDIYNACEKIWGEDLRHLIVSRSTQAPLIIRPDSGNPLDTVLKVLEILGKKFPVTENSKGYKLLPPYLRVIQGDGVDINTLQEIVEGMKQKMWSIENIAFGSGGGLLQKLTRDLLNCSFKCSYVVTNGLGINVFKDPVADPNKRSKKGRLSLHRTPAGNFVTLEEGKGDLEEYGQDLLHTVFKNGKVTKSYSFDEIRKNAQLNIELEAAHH
row,IC50,Structure (SMILES)
1,0.23 nM,C#CCN(Cc1cc2c(=O)n(C)c(CN3CCN(C)CC3)nc2cc1Cl)c1ccc(C(=O)NCc2cccnc2)cc1
2,74 nM,C#CCN(Cc1cc2c(=O)n(C)c(CN3CCN(C)CC3)nc2cc1Cl)c1ccc(C(=O)NCc2ccccn2)cc1 [MPI-0482593]
3,29 nM,C#CCN(Cc1cc2c(=O)n(C)c(CN3CCN(CCN)CC3)nc2cc1Cl)c1ccc(C(=O)NCc2ccccn2)cc1 [MPI-0482594]
